Assay results reported in patent US6387885B1, “3′,3′-N-bis-desmethyl-3′-N-cycloalkyl erythromycin derivatives as LHRH antagonists” (Abbott Laboratories, priority 1998, dated 2002).

tested on: not given; assay: not given; details: not given

melting point [°C] | SMILES
258 to 260 | CC[C@H]1OC(=O)[C@H](C)[C@@H](O[C@H]2C[C@@](C)(OC)[C@@H](O)[C@H](C)O2)[C@H](C)[C@@H](O[C@@H]2O[C@H](C)C[C@H](N3C(C)CCC3C)[C@H]2O)[C@](C)(OC)C[C@@H](C)C(=O)[C@H](C)[C@H]2N(CCc3ccc(Cl)c(Cl)c3)C(=O)O[C@]12C (single isomer, unassigned) [Example 5, 3′-Desamino-3′S-N-(2,5-dimethylpyrrolidinyl)-11-deoxy-11-[carboxy-(3,4-dichlorophenethylamino)]-6-O-methyl-erythromycin A 11,12-(cyclic carbamate)]
276 to 278 | CC[C@H]1OC(=O)[C@H](C)[C@@H](O[C@H]2C[C@@](C)(OC)[C@@H](O)[C@H](C)O2)[C@H](C)[C@@H](O[C@@H]2O[C@H](C)C[C@H](N3C(C)CCC3C)[C@H]2O)[C@](C)(OC)C[C@@H](C)C(=O)[C@H](C)[C@H]2N(CCc3ccc(F)c(Cl)c3)C(=O)O[C@]12C (single isomer, unassigned) [Example 6, 3′-Desamino-3′-N-(2,5-dimethylpyrrolidinyl)-11-deoxy-11-[carboxy-(3-chloro-4-fluorophenethylamino)]-6-O-methyl-erythromycin A 11,12-(cyclic carbamate)]

biological target: T1, LHRH rat pituitary receptor (Rattus norvegicus, UniProt P30969); assay: LHRH rat pituitary receptor binding (in vitro); details: method of Haviv et al. J. Med. Chem. 32: 2340-2344 (1989), read-out: pKI (receptor binding affinity; negative logarithm of the equilibrium dissociation constant) (converted)
T1 construct: from tissue; host or cells: rat pituitary
T1 sequence (P30969 1-327): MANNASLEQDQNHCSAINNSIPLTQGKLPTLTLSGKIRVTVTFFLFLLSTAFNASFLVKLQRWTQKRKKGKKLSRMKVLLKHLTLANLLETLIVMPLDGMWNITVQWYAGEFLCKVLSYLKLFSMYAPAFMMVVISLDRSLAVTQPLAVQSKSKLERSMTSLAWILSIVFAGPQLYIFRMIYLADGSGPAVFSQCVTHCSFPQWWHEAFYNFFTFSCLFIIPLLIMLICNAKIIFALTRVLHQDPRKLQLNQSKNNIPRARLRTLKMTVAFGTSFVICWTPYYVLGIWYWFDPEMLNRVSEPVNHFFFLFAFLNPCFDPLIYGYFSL
Description: Representative compounds of the present invention were evaluated in in vitro tests for LHRH rat pituitary receptor binding (pKI). The tests employed the methods detailed in F. Haviv, et al. J. Med. Chem., 32: 2340-2344 (1989). The receptor binding affinity (pKI) is the negative logarithms of the equilibrium dissociation constants.

SMILES | Ki [nM]
CC[C@H]1OC(=O)[C@H](C)[C@@H](O[C@H]2C[C@@](C)(OC)[C@@H](O)[C@H](C)O2)[C@H](C)[C@@H](O[C@@H]2O[C@H](C)C[C@H](N3C(C)CCC3C)[C@H]2O)[C@](C)(OC)C[C@@H](C)C(=O)[C@H](C)[C@H]2N(CCc3ccc(Cl)c(Cl)c3)C(=O)O[C@]12C (single isomer, unassigned) [Example 5, 3′-Desamino-3′S-N-(2,5-dimethylpyrrolidinyl)-11-deoxy-11-[carboxy-(3,4-dichlorophenethylamino)]-6-O-methyl-erythromycin A 11,12-(cyclic carbamate)] | 1.23
CC[C@H]1OC(=O)[C@H](C)[C@@H](O[C@H]2C[C@@](C)(OC)[C@@H](O)[C@H](C)O2)[C@H](C)[C@@H](O[C@@H]2O[C@H](C)C[C@H](N3CCCC3)[C@H]2O)[C@](C)(OC)C[C@@H](C)C(=O)[C@H](C)[C@H]2N(CCc3ccc(Cl)c(Cl)c3)C(=O)O[C@]12C [Example 1, 3′-Desamino-(3′S)-N-pyrrolidinyl-11-deoxy-11-[carboxy-(3,4-dichlorophenethylamino)]-6-O-methyl-erythromycin A 11,12-(cyclic carbamate)] | 1.82
CC[C@H]1OC(=O)[C@H](C)[C@@H](O[C@H]2C[C@@](C)(OC)[C@@H](O)[C@H](C)O2)[C@H](C)[C@@H](O[C@@H]2O[C@H](C)C[C@H](N3CCCCC3)[C@H]2O)[C@](C)(OC)C[C@@H](C)C(=O)[C@H](C)[C@H]2N(CCc3ccc(Cl)c(Cl)c3)C(=O)O[C@]12C [Example 3, 3′-Desamino-3′-N-piperidinyl-11-deoxy-11-[carboxy-(3,4-dichlorophenethylamino)]-6-O-methyl-erythromycin A 11,12-(cyclic carbamate)] | 3.55
CC[C@H]1OC(=O)[C@H](C)[C@@H](O[C@H]2C[C@@](C)(OC)[C@@H](O)[C@H](C)O2)[C@H](C)[C@@H](O[C@@H]2O[C@H](C)C[C@H](N3CCCCC3)[C@H]2O)[C@](C)(OC)C[C@@H](C)C(=O)[C@H](C)[C@H]2N(CCc3ccc(F)c(Cl)c3)C(=O)O[C@]12C [Example 4, 3′-Desamino-3′-N-piperidinyl-11-deoxy-11-[carboxy-(3-chloro-4-fluorophenethylamino)]-6-O-methyl-erythromycin A 11,12-(cyclic carbamate)] | 5.62

Next, values leading:

Ki [nM] | SMILES
0.676 | CCC1CCC(CC)N1[C@H]1C[C@@H](C)O[C@@H](O[C@@H]2[C@@H](C)[C@H](O[C@H]3C[C@@](C)(OC)[C@@H](O)[C@H](C)O3)[C@@H](C)C(=O)O[C@H](CC)[C@@]3(C)OC(=O)N(CCc4ccc(F)c(Cl)c4)[C@@H]3[C@@H](C)C(=O)[C@H](C)C[C@@]2(C)OC)[C@@H]1O (mixture of isomers) [Example 10, 3′-Desamino-3′-N-(2,5-diethylpyrrolidinyl)-11-deoxy-11-[carboxy-(3-chloro-4-fluorophenethylamino)]-6-O-methyl-erythromycin A 11,12-(cyclic carbamate)]
0.759 | CC[C@H]1OC(=O)[C@H](C)[C@@H](O[C@H]2C[C@@](C)(OC)[C@@H](O)[C@H](C)O2)[C@H](C)[C@@H](O[C@@H]2O[C@H](C)C[C@H](N3C(C)CCC3C)[C@H]2O)[C@](C)(OC)C[C@@H](C)C(=O)[C@H](C)[C@H]2N(CCc3ccc(F)c(Cl)c3)C(=O)O[C@]12C (single isomer, unassigned) [Example 6, 3′-Desamino-3′-N-(2,5-dimethylpyrrolidinyl)-11-deoxy-11-[carboxy-(3-chloro-4-fluorophenethylamino)]-6-O-methyl-erythromycin A 11,12-(cyclic carbamate)]
2.57 | CC[C@H]1OC(=O)[C@H](C)[C@@H](O[C@H]2C[C@@](C)(OC)[C@@H](O)[C@H](C)O2)[C@H](C)[C@@H](O[C@@H]2O[C@H](C)C[C@H](N3C(C)CCCC3C)[C@H]2O)[C@](C)(OC)C[C@@H](C)C(=O)[C@H](C)[C@H]2N(CCc3ccc(Cl)c(Cl)c3)C(=O)O[C@]12C (single isomer, unassigned) [Example 7, 3′-Desamino-3′-N-(2,6-dimethylpiperidinyl)-11-deoxy-11-[carboxy-(3,4-dichlorophenethylamino)]-6-O-methyl-erythromycin A 11,12-(cyclic carbamate)]
2.45 | CC[C@H]1OC(=O)[C@H](C)[C@@H](O[C@H]2C[C@@](C)(OC)[C@@H](O)[C@H](C)O2)[C@H](C)[C@@H](O[C@@H]2O[C@H](C)C[C@H](N3C(C)CCCC3C)[C@H]2O)[C@](C)(OC)C[C@@H](C)C(=O)[C@H](C)[C@H]2N(CCc3ccc(F)c(Cl)c3)C(=O)O[C@]12C (single isomer, unassigned) [Example 8, 3′-Desamino-3′-N-(2,6-dimethylpiperidinyl)-11-deoxy-11-[carboxy-(3-chloro-4-fluorophenethylamino)]-6-O-methyl-erythromycin A 11,12-(cyclic carbamate)]
1.74 | CCC1CCC(CC)N1[C@H]1C[C@@H](C)O[C@@H](O[C@@H]2[C@@H](C)[C@H](O[C@H]3C[C@@](C)(OC)[C@@H](O)[C@H](C)O3)[C@@H](C)C(=O)O[C@H](CC)[C@@]3(C)OC(=O)N(CCc4ccc(Cl)c(Cl)c4)[C@@H]3[C@@H](C)C(=O)[C@H](C)C[C@@]2(C)OC)[C@@H]1O (stereo partly drawn) [Example 9, 3′-Desamino-3′-N-(2,5-diethylpyrrolidinyl)-11-deoxy-11-[carboxy-(3,4-dichlorophenethylamino)]-6-O-methyl-erythromycin A 11,12-(cyclic carbamate)]
1.17 | CC[C@H]1OC(=O)[C@H](C)[C@@H](O[C@H]2C[C@@](C)(OC)[C@@H](O)[C@H](C)O2)[C@H](C)[C@@H](O[C@@H]2O[C@H](C)C[C@H](N3C(C4CC4)CCCC3C3CC3)[C@H]2O)[C@](C)(OC)C[C@@H](C)C(=O)[C@H](C)[C@H]2N(CCc3ccc(F)c(Cl)c3)C(=O)O[C@]12C (stereo partly drawn) [Example 11, 3′-Desamino-3′-N-(2,6-biscyclopropylpiperidinyl)-11-deoxy-11-[carboxy-(3-chloro-4-fluorophenethylamino)]-6-O-methyl-erythromycin A 11,12-(cyclic carbamate)]
